From publication PMC3721678 (Biochemistry, 2010)

How the values were obtained:
[1] = test system: Helix aspersa agglutinin (HAA); test: SPR competition assay; format: binding, Cornu aspersum; settings: 8 µM mIgA1κ as competed analyte, 25 °C; competitive
[2] = target: T1, Helix pomatia agglutinin (HPA) (Helix pomatia, UniProt Q2F1K8); test: SPR competition assay; format: binding; settings: 8 µM mIgA1κ as competed analyte, 25 °C; competitive
T1 sequence (Q2F1K8 20-121): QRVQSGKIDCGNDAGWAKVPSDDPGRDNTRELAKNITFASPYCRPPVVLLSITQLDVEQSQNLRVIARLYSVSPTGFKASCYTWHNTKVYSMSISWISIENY

IC50 [1]: 81 ± 8 µM
IC50 [2]: 220 ± 20 µM
SMILES: CC(=O)N[C@H]1C(O)O[C@H](CO)[C@H](O)[C@@H]1O (some centres unmarked) [GalNAc]
